Results: patent US10669240B2, “5-substituted indazole-3-carboxamides and preparation and use thereof” (Samumed, LLC, priority 2014, dated 2020)

Experiments:
Type in all cases: cell-based
DYRK1A = DYRK1A (Homo sapiens (Human), UniProt Q13627); assay: DYRK1A activity Tau assay: pSer396 Tau in SH-SY5Y cells by ELISA / western blot; conditions: overnight (16-18 h) exposure
[1] = system: primary human mesenchymal stem cells (hMSCs); assay: Chondrogenesis assay in primary human mesenchymal stem cells, nodule count vs TGF-β3 positive control; conditions: 6 days; for Conc (nM) of Max. activity: 6-point dose-response 2700 nM to 10 nM, dose at which maximum chondrogenesis activity was reached; for Max. Activity as % TGF-β3 activity: relative to TGF-β3 (10 ng/mL) positive control; for Conc (nM) of 100% TGF-β3 activity: concentration required to induce chondrogenesis equivalent to TGF-β3 (10 ng/mL)
Text: The above synthesized compounds were screened using primary human mesenchymal stem cells (hMSCs) to determine their ability to induce chondrogenesis (process by which cartilage is developed).
Human Mesenchymal Stem Cell Culture:
Primary human mesenchymal stem cells (hMSCs) were purchased from Lonza (Walkersville, Md.) and expanded in Mesenchymal Stem Cell Growth Media (Lonza). Cells between passage 3 and 6 were used for the experiments.
Number of nodules in each well was normalized to the average of 3 DMSO treated wells on the same plate using Excel (Microsoft Inc.). The normalized averages (fold change over DMSO) of 3 replicate wells for each compound concentration were calculated. Due to solubility limitations of some of the compounds, curve fitting was incomplete leading to inaccurate EC50 determinations.
Using TGF-β3 as a positive control, the concentration of test compounds required to induce equivalent levels of chondrogenesis is reported. In addition, the maximum activity of each compound and the respective dose that each compound reached maximum chondrogenesis activity is reported.

[2] = system: Wnt activity (Wnt-responsive SP5 promoter luciferase reporter in SW480 cells); assay: Wnt activity reporter assay: SW480 cells with SP5 promoter-driven firefly luciferase; conditions: Homo sapiens, 24 h after compound addition, read-out: Wnt inhibition
Text: The above synthesized compounds were screened using the assay procedure for Wnt activity described below.
Reporter cell lines were generated by stably transducing cells of cancer cell lines (e.g., colon cancer) with a lentiviral construct that include a Wnt-responsive promoter driving expression of the firefly luciferase gene.
Lentiviral constructs were made in which the SP5 promoter, a promoter having eight TCF/LEF binding sites derived from the SP5 promoter, was linked upstream of the firefly luciferase gene. The lentiviral constructs included a hygromycin resistance gene as a selectable marker. The SP5 promoter construct was used to transduce SW480 cells, a colon cancer cell line having a mutated APC gene that generates a truncated APC protein, leading to de-regulated accumulation of β-catenin.
Cultured SW480 cells bearing a reporter construct were distributed at approximately 10,000 cells per well into 384 well multiwell plates. Compounds were then added to the wells in half-log dilutions using a three micromolar top concentration. A series of control wells for each cell type received only buffer and compound solvent. Twenty-four hours after the addition of compound, reporter activity for luciferases was assayed, for example, by addition of the BrightGlo luminescence reagent (Promega) and the Victor3 plate reader (Perkin Elmer). Readings were normalized to DMSO only treated cells, and normalized activities were then used for the IC50 calculations.

In the case of `O=C(Nc1cccc2cccnc12)c1n[nH]c2ccc(-c3cccnc3)cc12` [Compound 43, 5-(Pyridin-3-yl)-N-(quinolin-8-yl)-1H-indazole-3-carboxamide], the EC50 (DYRK1A) is reported as 2200 nM, the “Conc (nM) of Max. activity” value [1] is reported as 100 nM and the “Max. Activity as % TGF-β3 activity” value [1] is reported as 38%.

In the case of `O=C(Nc1ccnc(C(F)(F)F)c1)c1n[nH]c2ccc(-c3cccnc3)cc12` [Compound 45, 5-(Pyridin-3-yl)-N-(2-(trifluoromethyl)pyridin-4-yl)-1H-indazole-3-carboxamide], the EC50 (DYRK1A) is reported as 38 nM, the “Conc (nM) of Max. activity” value [1] is reported as 900 nM and the “Conc (nM) of 100% TGF-β3 activity” value [1] is reported as 900 nM. The “Max. Activity as % TGF-β3 activity” value [1] was 114%.

With `O=C(Nc1ccc(N2CC(F)(F)C2)nc1)c1n[nH]c2ccc(-c3cncc(CN4CCCCC4)c3)cc12` [Compound 71, N-(6-(3,3-Difluoroazetidin-1-yl)pyridin-3-yl)-5-(5-(piperidin-1-ylmethyl)pyridin-3-yl)-1H-indazole-3-carboxamide] the EC50 (DYRK1A) was 2 nM, the “Conc (nM) of Max. activity” value [1] was 900 nM and the “Conc (nM) of 100% TGF-β3 activity” value [1] was 900 nM. For the same molecule, the “Max. Activity as % TGF-β3 activity” value [1] was 110%.

`COc1cc(NC(=O)c2n[nH]c3ccc(-c4cncc(CN5CCCCC5)c4)cc23)ccn1` [Compound 78, N-(2-Methoxypyridin-4-yl)-5-(5-(piperidin-1-ylmethyl)pyridin-3-yl)-1H-indazole-3-carboxamide] was tested, and the EC50 (DYRK1A) was 2 nM, the “Conc (nM) of Max. activity” value [1] was 900 nM and the “Max. Activity as % TGF-β3 activity” value [1] was 79%.

`CC(C)N1CCC(NC(=O)c2n[nH]c3ccc(-c4cccnc4)cc23)CC1` [Compound 90, N-(1-Isopropylpiperidin-4-yl)-5-(pyridin-3-yl)-1H-indazole-3-carboxamide] was tested, and the EC50 (DYRK1A) was 15 nM, the “Conc (nM) of Max. activity” value [1] was 2700 nM and the “Conc (nM) of 100% TGF-β3 activity” value [1] was 2700 nM. For the same molecule, the “Max. Activity as % TGF-β3 activity” value [1] was 169%.

`CC(C)CN1CCC(NC(=O)c2n[nH]c3ccc(-c4cccnc4)cc23)CC1` [Compound 91, N-(1-Isobutylpiperidin-4-yl)-5-(pyridin-3-yl)-1H-indazole-3-carboxamide] was tested, and the EC50 (DYRK1A) was 11 nM, the “Conc (nM) of Max. activity” value [1] was 2700 nM and the “Conc (nM) of 100% TGF-β3 activity” value [1] was 2700 nM. The “Max. Activity as % TGF-β3 activity” value [1] was 120%.

With `Cc1ncc(NC(=O)c2n[nH]c3ccc(-c4cccnc4)cc23)cn1` [Compound 97, N-(2-Methylpyrimidin-5-yl)-5-(pyridin-3-yl)-1H-indazole-3-carboxamide] the EC50 (DYRK1A) was 556 nM, the “Conc (nM) of Max. activity” value [1] was 2700 nM and the “Conc (nM) of 100% TGF-β3 activity” value [1] was 2700 nM. The “Max. Activity as % TGF-β3 activity” value [1] was 98%.

With `Cc1ncc(NC(=O)c2n[nH]c3ccc(-c4cncc(CN5CCCCC5)c4)cc23)cn1` [Compound 98, N-(2-Methylpyrimidin-5-yl)-5-(5-(piperidin-1-ylmethyl)pyridin-3-yl)-1H-indazole-3-carboxamide] the EC50 (DYRK1A) was 1 nM, the “Conc (nM) of Max. activity” value [1] was 2700 nM and the “Conc (nM) of 100% TGF-β3 activity” value [1] was 2700 nM. For the same molecule, the “Max. Activity as % TGF-β3 activity” value [1] was 161%.

In the case of `O=C(Nc1cccnc1)c1n[nH]c2cc(F)c(-c3cccnc3)cc12` [Compound 99, 6-Fluoro-N,5-di(pyridin-3-yl)-1H-indazole-3-carboxamide], the EC50 (DYRK1A) is reported as 878 nM, the “Conc (nM) of Max. activity” value [1] is reported as 2700 nM and the “Max. Activity as % TGF-β3 activity” value [1] is reported as 64%.

`O=C(Nc1ccnc(N2CCCCC2)c1)c1n[nH]c2ccc(-c3cccnc3)cc12` [Compound 103, N-(2-(Piperidin-1-yl)pyridin-4-yl)-5-(pyridin-3-yl)-1H-indazole-3-carboxamide] was tested, and the EC50 (DYRK1A) was 5 nM, the “Conc (nM) of Max. activity” value [1] was 2700 nM and the “Conc (nM) of 100% TGF-β3 activity” value [1] was 2700 nM. For the same molecule, the “Max. Activity as % TGF-β3 activity” value [1] was 130%.

`CCN1CCC(NC(=O)c2n[nH]c3cc(F)c(-c4cncc5ccccc45)cc23)CC1` [Compound 1293, N-(1-Ethylpiperidin-4-yl)-6-fluoro-5-(isoquinolin-4-yl)-1H-indazole-3-carboxamide] showed an IC50 [2] of 2130 nM and an EC50 (DYRK1A) of 210 nM.

In the case of `O=C(NC1CCN(CCF)CC1)c1n[nH]c2ccc(-c3cncc4ccccc34)cc12` [Compound 1297, N-(1-(2-Fluoroethyl)piperidin-4-yl)-5-(isoquinolin-4-yl)-1H-indazole-3-carboxamide], the IC50 [2] is reported as 2200 nM and the EC50 (DYRK1A) is reported as 30 nM.

In the case of `O=C(NC1CCN(CC(F)F)CC1)c1n[nH]c2ccc(-c3cncc(F)c3)cc12` [Compound 1298, N-(1-(2,2-Difluoroethyl)piperidin-4-yl)-5-(5-fluoropyridin-3-yl)-1H-indazole-3-carboxamide], the IC50 [2] is reported as 1200 nM and the EC50 (DYRK1A) is reported as 28 nM.

Work on `CC(C)(F)CN1CCC(NC(=O)c2n[nH]c3ccc(-c4cccnc4)cc23)CC1` [Compound 1309, N-(1-(2-Fluoro-2-methylpropyl)piperidin-4-yl)-5-(pyridin-3-yl)-1H-indazole-3-carboxamide] yielded an IC50 [2] of 2260 nM and an EC50 (DYRK1A) of 7 nM.

`O=C(NC1CCN(CC2CC2)CC1)c1n[nH]c2ccc(-c3cncc(Cl)c3)cc12` [Compound 1313, 5-(5-Chloropyridin-3-yl)-N-(1-(cyclopropylmethyl)piperidin-4-yl)-1H-indazole-3-carboxamide] showed an IC50 [2] of 1800 nM and an EC50 (DYRK1A) of 33 nM.

In the case of `NC1CN(c2cncc(-c3ccc4[nH]nc(C(=O)Nc5cccc(F)c5)c4c3)n2)C1` [Compound 1318, 5-(6-(3-Aminoazetidin-1-yl)pyrazin-2-yl)-N-(3-fluorophenyl)-1H-indazole-3-carboxamide], the IC50 [2] is reported as 4000 nM and the EC50 (DYRK1A) is reported as 6 nM.

With `O=C(Nc1ccc(CN2CCCC2)cc1)c1n[nH]c2ccc(-c3cccc(F)c3F)cc12` [Compound 1327, 5-(2,3-Difluorophenyl)-N-(4-(pyrrolidin-1-ylmethyl)phenyl)-1H-indazole-3-carboxamide] the IC50 [2] was 1500 nM and the EC50 (DYRK1A) was 31 nM.

With `O=C(Nc1ccc(CN2CCCC2)cc1)c1n[nH]c2ccc(-c3cncnc3)cc12` [Compound 1328, 5-(Pyrimidin-5-yl)-N-(4-(pyrrolidin-1-ylmethyl)phenyl)-1H-indazole-3-carboxamide] the IC50 [2] was 3700 nM and the EC50 (DYRK1A) was 4 nM.

In the case of `O=C(Nc1ccc(CN2CCCC2)cc1)c1n[nH]c2ccc(-c3cncc(F)c3)cc12` [Compound 1329, 5-(5-Fluoropyridin-3-yl)-N-(4-(pyrrolidin-1-ylmethyl)phenyl)-1H-indazole-3-carboxamide], the IC50 [2] is reported as 1700 nM and the EC50 (DYRK1A) is reported as 1 nM.

Work on `O=C(Nc1ccc(CN2CCCC2)cc1)c1n[nH]c2ccc(-c3cncc(Cl)c3)cc12` [Compound 1330, 5-(5-Chloropyridin-3-yl)-N-(4-(pyrrolidin-1-ylmethyl)phenyl)-1H-indazole-3-carboxamide] yielded an IC50 [2] of 5500 nM and an EC50 (DYRK1A) of 3 nM.

`Cc1cc2[nH]nc(C(=O)Nc3ccc(CN4CCCC4)cc3)c2cc1-c1cccnc1` [Compound 1331, 6-Methyl-5-(pyridin-3-yl)-N-(4-(pyrrolidin-1-ylmethyl)phenyl)-1H-indazole-3-carboxamide] gave an IC50 [2] of 1400 nM and an EC50 (DYRK1A) of 17 nM.

`O=C(Nc1cc(CN2CCCC2)ccc1Cl)c1n[nH]c2ccc(-c3cccnc3)cc12` [Compound 1333, N-(2-Chloro-5-(pyrrolidin-1-ylmethyl)phenyl)-5-(pyridin-3-yl)-1H-indazole-3-carboxamide] gave an IC50 [2] of 5100 nM and an EC50 (DYRK1A) of 9 nM.

For `COc1ccc(NC(=O)c2n[nH]c3ccc(-c4cncc(N5CC(N)C5)n4)cc23)cn1` [Compound 1334, 5-(6-(3-Aminoazetidin-1-yl)pyrazin-2-yl)-N-(6-methoxypyridin-3-yl)-1H-indazole-3-carboxamide], the IC50 [2] was 1500 nM and the EC50 (DYRK1A) was 2 nM.

Work on `CN1CCC(NC(=O)c2n[nH]c3ccc(-c4cnccc4C(F)(F)F)cc23)CC1` [Compound 1340, N-(1-Methylpiperidin-4-yl)-5-(4-(trifluoromethyl)pyridin-3-yl)-1H-indazole-3-carboxamide] yielded an IC50 [2] of 1800 nM and an EC50 (DYRK1A) of 2500 nM.

`O=C(Nc1ccc(F)cc1)c1n[nH]c2ccc(-c3cncc(F)c3)cc12` [Compound 1341, N-(4-Fluorophenyl)-5-(5-fluoropyridin-3-yl)-1H-indazole-3-carboxamide] was tested, and the IC50 [2] was 4800 nM and the EC50 (DYRK1A) was 36 nM.

In the case of `CC(C)(C)CN1CCC(NC(=O)c2n[nH]c3cc(F)c(-c4cccnc4)cc23)CC1` [Compound 1342, 6-Fluoro-N-(1-neopentylpiperidin-4-yl)-5-(pyridin-3-yl)-1H-indazole-3-carboxamide], the IC50 [2] is reported as 1400 nM and the EC50 (DYRK1A) is reported as 13 nM.

Molecule `NC1CN(c2cncc(-c3ccc4[nH]nc(C(=O)Nc5cncc(-c6cccc(F)c6)c5)c4c3)n2)C1` [Compound 1344, 5-(6-(3-Aminoazetidin-1-yl)pyrazin-2-yl)-N-(5-(3-fluorophenyl)pyridin-3-yl)-1H-indazole-3-carboxamide] has an IC50 [2] of 2930 nM and an EC50 (DYRK1A) of 15 nM.
